Experiments:
ALR2 enzyme [1] = target: T1, ALR2 enzyme (Homo sapiens, UniProt P15121); experiment: ALR2 activity assay kit (ab273276), inhibition; format: biochemical;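 for relative ALR2 inhibition: inhibition calculated from the rate of NADPH cofactor consumption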
T1 construct: purchased ab273276
Method: The obtained dose–response curve had concentrations of 10 μM, 5 μM, 500 nM, 50 nM, and 5 nM.

FRAP assay = experiment: FRAP assay
Method: (§1) All synthesized compounds were evaluated at 30 μM, 50 μM, 70 μM, 90 μM, and 110 μM under two of the most widely used methods in research to directly measure the antioxidant and anti-radical intrinsic capacity, FRAP, and ABTS assay, which were validated by a dose–response curve of 5-ASA as a reference. In the same way, these tests were carried out in triplicate using an assay kit (from Pharmaceutical and Biotechnological Innovation-Services) according to the manufacturer’s instructions.

ABTS assay = experiment: ABTS assay
Method: as §1

male Wistar rat = experiment: Acute oral toxicity, Up and Down procedure (OECD 425); format: in vivo; parameters: Heart weight / IWA (initial weight of animals) / FWA (final weight of animals) / Spleen weight / Liver weight / Intestine weight / Stomach weight / Kidney weight: unit not given here; conditions: for FWA (final weight of animals): after 14 days; for Heart weight / Intestine weight / Kidney weight / Liver weight / Spleen weight / Stomach weight: necropsy; for toxicity category (OECD): maximum dose 1250 mg/Kg oral
Method: All synthesized compounds (8c, 8d, and 12d as a racemic mixture) were suspended in 2% Tween 80 in water and administered orally by an esophageal cannula following the “Up and Down” methodology. Nevertheless, compounds could not be solubilized in the desired volume to complete the highest dose (1750 mg/Kg), so the toxicity test was performed with a maximum dose of 1250 mg/Kg. Even so, the values obtained indicate that these compounds are classified within toxicity category 4 according to the guidelines established by the Organization for Economic Co-operation and Development (OECD).
The “Up and Down” procedure of OECD Guideline 425 was used to estimate the LD50 value of synthesized compounds. Briefly, a dose of 175 mg/Kg was administered to a male Wistar rat, which was monitored continuously for 48 h. As the animal survived, a second animal received a dose of 550 mg/Kg, and, as it survived, a third animal received an increasing dose of 1750 mg/Kg. Finally, two other rats were administered the same dose. All animals were kept under observation for 14 days, and 24 h later, they were taken to the humane endpoint for macroscopic examination of organs and tissues. Finally, the LD50 value of the compounds was estimated to determine their degree of toxicity and classified based on the GHS of Classification and Labeling of Chemicals.

ALR2 enzyme [2] = target: T1, ALR2 enzyme; experiment: ALR2 activity assay kit (ab273276), inhibition; format: biochemical; conditions: Inhibitor concentration
[3] = Inhibitor concentration 5000 nm
[4] = Inhibitor concentration 10000 nm

Row | SMILES | relative ALR2 inhibition (ALR2 enzyme [1]; Inhibitor concentration 5 nm) | relative ALR2 inhibition (ALR2 enzyme [1]; Inhibitor concentration 50 nm) | relative ALR2 inhibition (ALR2 enzyme [1]; Inhibitor concentration 500 nm) | relative ALR2 inhibition (ALR2 enzyme [1]; [3]) | relative ALR2 inhibition (ALR2 enzyme [1]; [4]) | Percentage reduction of ferric ion to ferrous ion (FRAP) (FRAP assay; 30 µM) | Percentage reduction of ferric ion to ferrous ion (FRAP) (FRAP assay; 50 µM) | Percentage reduction of ferric ion to ferrous ion (FRAP) (FRAP assay; 70 µM) | Percentage reduction of ferric ion to ferrous ion (FRAP) (FRAP assay; 90 µM) | Percentage reduction of radical cation ABTS (ABTS assay; 30 µM) | Percentage reduction of radical cation ABTS (ABTS assay; 50 µM) | Percentage reduction of radical cation ABTS (ABTS assay; 70 µM) | Percentage reduction of radical cation ABTS (ABTS assay; 90 µM) | Percentage reduction of radical cation ABTS (ABTS assay; 110 µM) | FWA (final weight of animals) (male Wistar rat; 1250 mg/Kg oral, mean ± SEM) | Heart weight (male Wistar rat; 1250 mg/Kg oral, mean ± SEM) | Intestine weight (male Wistar rat; 1250 mg/Kg oral, mean ± SEM) | Kidney weight (male Wistar rat; 1250 mg/Kg oral, mean ± SEM) | Liver weight (male Wistar rat; 1250 mg/Kg oral, mean ± SEM) | relative ALR2 inhibition (ALR2 enzyme [2]) | also measured
1 | CNC(=O)C(Cc1ccccc1)N/C(=N\c1nc2ccccc2s1)SC (racemic) [12d, Methyl (RS, E)-N’-(benzo[d]thiazol-2-yl)-N-(1-(methylamino)-1-oxo-3-phenylpropan-2-yl)carbamimidothioate] | 29.534% | 32.532% | 33.993% | 48.448% | 86.455% | 0.19% | 0.20% | 0.18% | 0.20% | -3.4% | -3.7% | -2.3% | -3.1% | -1.9% | 309.67 ± 4.67 | 1.23 ±0.13 | 29.10 ± 0.50 | 2.87 ± 0.067 | 19.33 ± 0.03 | 32.814% | IWA (initial weight of animals) (male Wistar rat; 1250 mg/Kg oral, mean ± SEM): 208.47 ± 6.47; Spleen weight (male Wistar rat; 1250 mg/Kg oral, mean ± SEM): 0.83 ± 0.03; Stomach weight (male Wistar rat; 1250 mg/Kg oral, mean ± SEM): 1.53 ± 0.07; toxicity category (OECD) (male Wistar rat): 4
2 | COC(=O)[C@@H](N/C(=N\c1nc2ccccc2s1)SC)c1ccccc1 [8c, Methyl (S,E)-2-(((benzo[d]thiazol-2-ylimino)(methylthio)methyl)amino)-2-phenylacetate] | 82.945% | 85.158% | 68.371% | 53.000% |  | 13.2% | 14.4% | 15.5% | 19.6% | -3.5% | -3.9% | -3.8% | -2.9% | -2.8% | 204.37 ± 1.47 | 1.07 ± 0.17 | 30.20 ± 1.50 | 2.57 ± 0.27 | 18.87 ± 1.47 | 90.000% | concentrations at which ALR2 was inhibited (ALR2 enzyme [1]): below 10 µM; concentration dependence of ALR2 inhibition (IC50 not calculable) (ALR2 enzyme [1]; 10 μM to 5 nM): did not show a concentration-dependent response; Percentage reduction of ferric ion to ferrous ion (FRAP) (FRAP assay; 110 µM): 20.2%; Spleen weight (male Wistar rat; 1250 mg/Kg oral, mean ± SEM): 0.73 ± 0.03; Stomach weight (male Wistar rat; 1250 mg/Kg oral, mean ± SEM): 1.57 ± 0.07; toxicity category (OECD) (male Wistar rat): 4
3 | CC(/C=C1\SC(=S)N(CC(=O)O)C1=O)=C\c1ccccc1 [Epa, epalrestat, reference compound] | 5.000% | 5.288% | 12.513% | 58.372% | 100.000% |  |  |  |  |  |  |  |  |  |  |  |  |  |  | 3.000% | 

— publication PMC12388506, “Preclinical Evaluation of 2-Aminobenzothiazole Derivatives: In Silico, In Vitro, and Preliminary In Vivo Studies as Diabetic Treatments and Their Complications” (Molecules, 2025)
